Drawing on BindingDB's records for doi:10.1016/j.bmc.2021.116093 (Wayne State University School of Medicine, 2021), this text covers IC50 for eight molecules.

Each structure is given as a SMILES string.

A short description of assay [1]: Inhibition of human PCFT expressed in Chinese Hamster MTXRII-OuaR2-4 R2 cells assessed as reduction in cell proliferation after 96 hrs by CellTiter-blue assay. (In general: The colour change of resazurin is a common sign of viable cells or microbes.)
Assay [2] can be described thus: Inhibition of human FRalpha expressed in Chinese Hamster MTXRII-OuaR2-4 R2 cells assessed as reduction in cell proliferation after 96 hrs by CellTiter-blue assay.
Assay [3] can be described thus: Inhibition of human RFC expressed in Chinese Hamster MTXRII-OuaR2-4 R2 cells assessed as reduction in cell proliferation after 96 hrs by CellTiter-blue assay.
Assay [4] can be described thus: Inhibition of human FRbeta expressed in Chinese Hamster MTXRII-OuaR2-4 R2 cells assessed as reduction in cell proliferation after 96 hrs by CellTiter-blue assay.

Turning to `Nc1nc2sc(CCCCc3cc(C(=O)N[C@@H](CCC(=O)O)C(=O)O)cs3)cc2c(=O)[nH]1`, the IC50 is more than 1000 nM in assay [1], 0.91 nM in assay [2], more than 1000 nM in assay [3] and 1.2 nM in assay [4].

For `Nc1nc2sc(CCCCc3csc(C(=O)N[C@@H](CCC(=O)O)C(=O)O)c3)cc2c(=O)[nH]1`, the IC50 in assay [1] was 460 nM; in assay [2], 5.6 nM; in assay [3], more than 1000 nM; in assay [4] it was 5.6 nM.

`Nc1nc2sc(CCCCc3ccc(C(=O)N[C@@H](CCC(=O)O)C(=O)O)s3)cc2c(=O)[nH]1`: the IC50 in assay [1] is more than 1000 nM; in assay [2] it was 2.6 nM; in assay [3], more than 1000 nM; in assay [4], 1.7 nM.

Take `Nc1nc2sc(CCCCc3ccc(C(=O)N[C@@H](CCC(=O)O)C(=O)O)o3)cc2c(=O)[nH]1`: the half-maximal inhibitory concentration (IC50) in assay [1] is more than 1000 nM; in assay [2], 11 nM; in assay [3], more than 1000 nM; in assay [4], 2.6 nM.

As for `Nc1nc2sc(CCCc3ccc(C(=O)N[C@@H](CCC(=O)O)C(=O)O)s3)cc2c(=O)[nH]1`, the IC50 was more than 1000 nM in assay [1], 0.34 nM in assay [2], more than 1000 nM in assay [3] and 1.8 nM in assay [4].

On to `Nc1nc2sc(CCCc3csc(C(=O)N[C@@H](CCC(=O)O)C(=O)O)c3)cc2c(=O)[nH]1`, for which the 50% inhibitory concentration (IC50) in assay [1] was 107 nM; in assay [2], 0.44 nM; in assay [3], more than 1000 nM; in assay [4], 0.24 nM.

In the case of `Nc1nc2sc(CCCc3cc(C(=O)N[C@@H](CCC(=O)O)C(=O)O)cs3)cc2c(=O)[nH]1`, the half-inhibitory concentration (IC50) in assay [1] was 80 nM; in assay [2], 1.1 nM; in assay [3] it was more than 1000 nM; in assay [4], 0.72 nM.

Regarding `Nc1nc2sc(CCCCc3ccc(C(=O)N[C@@H](CCC(=O)O)C(=O)O)cc3)cc2c(=O)[nH]1` [(S)-2-(4-(4-(2-amino-4-oxo-3,4-dihydrothieno[2,3-d]pyrimidin-6-yl)butyl)benzamido)pentanedioic acid], the results for the IC50 in assay [2], in assay [3] and in assay [4] were 9 nM, more than 1000 nM and 20 nM, respectively.

The IC50 is the concentration needed to halve the response being measured.
